Assay results from the supplement of paper PMC10307832.

Tests used:
Test in all cases: relative viability (nuclei count vs DMSO), 5 days (fraction); higher = more cells survive
[1] = compound: CCn1c(-c2nonc2N)nc2c(C#CC(C)(C)O)ncc(OC[C@H]3CCCNC3)c21 + NC(=O)Nc1cc(-c2cccc(F)c2)sc1C(=O)N[C@H]1CCCNC1 [AZD7762] (partner 0.2 µM)
In short: (§1)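 Lung cancer cell lines were pin-tool dosed in 1536-well plates on the day after seeding, with either a lone drug or a fixed anchor-drug dose plus five library-drug doses (not always all listed) in √10 steps. Nuclei were counted on 4× images after 5 days. Relative viability is the ratio of treated-well to vehicle-well nuclei counts, with each value a median of duplicate plates.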

BAM7 + Pictilisib = compound: CCOC1=CC=CC=C1N=NC2=C(NN(C2=O)C3=NC(=CS3)C4=CC=CC=C4)C [BAM7] + CS(=O)(=O)N1CCN(Cc2cc3nc(-c4cccc5[nH]ncc45)nc(N4CCOCC4)c3s2)CC1 [Pictilisib] (partner 1 µM)
In short: as §1

BAM7 + Decitabine = compound: CCOC1=CC=CC=C1N=NC2=C(NN(C2=O)C3=NC(=CS3)C4=CC=CC=C4)C [BAM7] + Nc1ncn([C@H]2C[C@H](O)[C@@H](CO)O2)c(=O)n1 [Decitabine] (partner 2 µM)
In short: as §1

[2] = compound: CCn1c(-c2nonc2N)nc2c(C#CC(C)(C)O)ncc(OC[C@H]3CCCNC3)c21 + CC(=O)Nc1cccc(-n2c(=O)n(C3CC3)c(=O)c3c(Nc4ccc(I)cc4F)n(C)c(=O)c(C)c32)c1 [Trametinib] (partner 0.02 µM)
In short: as §1

Cell Line	relative viability ([1]; first compound 0.01 µM)	relative viability ([1]; first compound 0.03162 µM)	relative viability ([1]; first compound 0.1 µM)	relative viability ([1]; first compound 0.3162 µM)	relative viability ([1]; first compound 1 µM)	relative viability (BAM7 + Pictilisib; first compound 0.5 µM)	relative viability (BAM7 + Pictilisib; first compound 5 µM)	relative viability (BAM7 + Pictilisib; first compound 15.81 µM)	relative viability (BAM7 + Pictilisib; first compound 50 µM)	relative viability (BAM7 + Decitabine; first compound 0.5 µM)	relative viability (BAM7 + Decitabine; first compound 5 µM)	relative viability (BAM7 + Decitabine; first compound 15.81 µM)	relative viability (BAM7 + Decitabine; first compound 50 µM)	relative viability ([2]; first compound 0.01 µM)	relative viability ([2]; first compound 0.03162 µM)	relative viability ([2]; first compound 0.1 µM)	relative viability ([2]; first compound 0.3162 µM)	relative viability ([2]; first compound 1 µM)
LC-2-ad	0.86	0.874	0.885	0.839	0.867	0.581	0.222	0.383	0.427	0.786	0.774	0.751	0.689	0.9	0.93	0.91	0.89	0.933
LCLC-97TM1	0.279	0.269	0.206	0.292	0.294	0.218	0.197	0.172	0.2	0.252	0.269		0.24	0.172	0.232	0.216	0.191	0.198
LCLC-103H	0.752	0.862	0.743	0.668	0.696	0.611	0.654	0.604	0.687	0.751	0.77	0.709	0.708	0.615	0.686	0.66	0.642	0.675
LK-2	0.457	0.446	0.291	0.339	0.303	0.595	0.663	0.598	0.546	0.352	0.335	0.347	0.326	0.574	0.878	0.525	0.686	0.869
LOU-NH91	0.78	0.693	0.755	0.689	0.68	0.54	0.555	0.524	0.532	0.815	0.859	0.783	0.799	0.795	0.788	0.802	0.695	0.659
LU99A	0.345	0.363	0.379	0.297	0.378	0.32	0.315	0.398	0.353	0.81	0.95	0.933	0.876	0.517	0.611	0.6	0.524	0.525
LXF-289	1.2	1.15	1.11	1.06	1.1	0.892	0.844	0.766	0.786	0.341	0.339	0.353	0.407	0.686	0.66	0.703	0.609	0.668
NCI-H23	0.222	0.268	0.228	0.208	0.265	0.55	0.52	0.499	0.542	0.347	0.332	0.322	0.304	0.373	0.378	0.433	0.369	0.357
NCI-H322M	0.591	0.661	0.562	0.516	0.625	0.53	0.623	0.549	0.578	0.761	0.722	0.742	0.692	0.546	0.508	0.505	0.433	0.511
NCI-H358	0.478	0.386	0.684	0.518	0.512	0.296	0.366	0.327	0.359		0.199	0.232	0.224	0.145	0.133	0.132	0.115	0.104
NCI-H441	1.11	1.17	1	0.988	1.1	0.433	0.47	0.528	0.519	0.291	0.251	0.235	0.209	0.435	0.39	0.452	0.397	0.378
NCI-H460	0.633	0.649	0.575	0.636	0.618	0.439	0.485	0.411	0.381	0.475	0.455	0.473	0.449	0.171	0.121	0.145	0.0808	0.105
NCI-H596	1.18		1.12	1.21	1.06	0.372	0.455	0.399	0.35	0.879	0.984	0.908	1.09	0.797		0.821	0.785	0.878
NCI-H647	0.433	0.437	0.45	0.423	0.486	0.49	0.511	0.478	0.541	0.404	0.372	0.436	0.438	0.481	0.493	0.475	0.364	0.323
NCI-H650	0.948	1.05	0.998	0.878	1.08	0.893	1.03	0.896	0.77	0.297	0.323	0.315	0.448	0.934	0.977	0.938	0.897	1.07
NCI-H727	0.586	0.6	0.768	0.631	0.576	0.414	0.545	0.387	0.31	0.894	0.954	0.89	0.808	0.391	0.359	0.336	0.347	0.371
NCI-H838	0.957	1.02	0.988	0.855	0.9	0.487	0.421	0.449	0.441	0.514	0.447	0.452	0.478	0.534	0.556	0.5	0.453	0.494
NCI-H1355	0.768	0.762	0.827	0.625	0.743	0.462	0.41	0.384	0.435	0.357	0.357	0.319	0.37	0.464	0.415	0.463	0.386	0.382

Cell Line	relative viability ([1]; first compound 0.01 µM)	relative viability ([1]; first compound 0.03162 µM)	relative viability ([1]; first compound 0.1 µM)	relative viability ([1]; first compound 0.3162 µM)	relative viability ([1]; first compound 1 µM)	relative viability (BAM7 + Pictilisib; first compound 0.5 µM)	relative viability (BAM7 + Pictilisib; first compound 5 µM)	relative viability (BAM7 + Pictilisib; first compound 15.81 µM)	relative viability (BAM7 + Pictilisib; first compound 50 µM)	relative viability (BAM7 + Decitabine; first compound 0.5 µM)	relative viability (BAM7 + Decitabine; first compound 5 µM)	relative viability (BAM7 + Decitabine; first compound 15.81 µM)	relative viability (BAM7 + Decitabine; first compound 50 µM)	relative viability ([2]; first compound 0.01 µM)	relative viability ([2]; first compound 0.03162 µM)	relative viability ([2]; first compound 0.1 µM)	relative viability ([2]; first compound 0.3162 µM)	relative viability ([2]; first compound 1 µM)
NCI-H1395	0.379	0.329	0.433	0.368	0.389	0.612	0.714	0.702	0.683	0.729	0.875	0.707	0.722	0.947	0.864	0.935	0.705	0.818
NCI-H1437	1.03	1.17	1.18	1.08	0.953	0.722	0.434	0.318	0.63	0.527	0.572	0.543	0.482	0.483	0.508	0.612	0.515	0.535
NCI-H1651	0.401	0.472	0.454	0.447	0.337	0.497	0.64	0.7	0.541	0.598	0.66	0.617	0.599	0.83	0.82	0.811	0.783	0.841
NCI-H1666	0.806	0.827	0.839	0.804	0.876	0.404	0.617	0.352	0.587	0.691	0.775	0.718	0.677	0.819	0.791	0.861	0.819	0.878
NCI-H1734	0.66	0.581	0.452	0.548	0.504	0.477	0.496	0.451	0.482	0.515	0.519	0.551	0.489	0.705	0.664	0.678	0.584	0.679
NCI-H1755	0.501	0.418	0.382	0.406	0.425	0.454	0.409	0.366	0.415	0.667	0.774	0.711	0.793	0.855	0.808	0.801	0.769	0.801
NCI-H1792	0.761	1.01	0.794	0.612	0.602	0.282	0.258	0.228	0.289	0.557	0.458	0.48	0.516	0.472	0.424	0.504	0.344	0.387
NCI-H1793	0.45	0.716		0.412	0.411	0.445	0.3	0.317	0.358	0.469	0.552	0.467	0.486	0.388	0.393		0.401	0.436
NCI-H1915	0.699	0.698	0.672	0.648	0.607	1.01	1.15	0.898	1.04	0.266	0.259	0.249	0.281	0.293	0.3	0.299	0.281	0.308
NCI-H1944	0.682	0.47	0.596	0.513	0.654	0.344	0.384	0.332	0.346	0.407	0.405	0.41	0.403	0.452	0.449	0.393	0.355	0.401
NCI-H1975	0.663	0.694	0.811	0.695	0.641	0.29	0.259		0.283	0.372	0.377	0.351	0.382	0.359	0.393	0.452	0.281	0.21
NCI-H1993	0.836	0.954	0.923	0.738	0.725	0.82	0.896	0.778	0.879	0.582	0.633	0.498	0.551	0.688	0.493	0.555	0.464	0.507
NCI-H2085	0.966	0.982	1.01	0.954	1	0.388	0.43	0.365	0.439	0.558	0.549	0.47	0.604	0.452	0.539	0.439	0.427	0.59
NCI-H2087	1.31		1.13	1.35	1.42	1.09	1.1	0.989	0.893	0.339	0.289	0.292	0.297	0.23		0.175	0.223	0.174
NCI-H2126	0.995	0.982	1	1.02	1.04	0.514	0.448	0.507	0.479	0.55	0.548	0.509	0.617	0.568	0.566	0.65	0.578	0.61
NCI-H2170	0.756	0.947	0.86	0.84	0.941	0.268	0.3	0.271	0.314	0.411	0.436	0.405	0.432	0.957	0.982	0.9	0.865	1.11
NCI-H2347	0.612	0.738	0.636	0.63	0.562	0.639	0.746	0.598	0.913	0.598	0.736	0.641	0.606	0.251	0.314	0.242	0.263	0.332
NCI-H2405	0.773	0.77	0.792	0.731	0.721	0.438	0.557	0.449	0.538	0.765	0.804	0.757	0.73	0.664	0.683	0.646	0.598	0.604
